Source: PubChem BioAssay AID248 (DTP/NCI, 2004)
Several values for one entry are separate records, joined by “and”; a condition that tells them apart may be missing. Equal values may be shown once. Inconclusive results and toxic doses are left out.

Test system: L1210 leukemia ip in BDF1 mice, survival T/C
Assay: NCI In Vivo Anticancer Drug Screen. Data for tumor model L1210 Leukemia (intraperitoneal) in B6D2F1 (BDF1) mice
Conditions: endpoint: mean survival time, higher = longer survival
Outline: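 Ratio derived from survival: compound-dosed mice over vehicle-dosed mice, all bearing a transplantable tumor.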

[1] = dose: 400.0 mg/kg/injection, schedule: Q01DX001 (ip), vehicle: saline
[2] = dose: 50.0 mg/kg/injection, schedule: Q01DX009 (ip), vehicle: Klucel (hydroxypropylcellulose) (HPC)
[3] = dose: 100.0 mg/kg/injection, schedule: Q01DX009 (ip), vehicle: Klucel (hydroxypropylcellulose) (HPC)
[4] = dose: 200.0 mg/kg/injection, schedule: Q01DX009 (ip), vehicle: Klucel (hydroxypropylcellulose) (HPC)
[5] = dose: 50.0 mg/kg/injection, schedule: Q01DX009 (ip), vehicle: saline with Tween-80
[6] = dose: 100.0 mg/kg/injection, schedule: Q01DX009 (ip), vehicle: saline with Tween-80
[7] = dose: 200.0 mg/kg/injection, schedule: Q01DX009 (ip), vehicle: saline with Tween-80
[8] = dose: 25.0 mg/kg/injection, schedule: Q04DX002 (ip), vehicle: saline with Tween-80
[9] = dose: 50.0 mg/kg/injection, schedule: Q04DX002 (ip), vehicle: saline with Tween-80
[10] = dose: 100.0 mg/kg/injection, schedule: Q04DX002 (ip), vehicle: saline with Tween-80
[11] = dose: 100.0 mg/kg/injection, schedule: Q01DX001 (ip), vehicle: saline
[12] = dose: 200.0 mg/kg/injection, schedule: Q01DX001 (ip), vehicle: saline
[13] = dose: 400.0 mg/kg/injection, schedule: Q01DX009 (ip), vehicle: Klucel (hydroxypropylcellulose) (HPC)
[14] = dose: 50.0 mg/kg/injection, schedule: Q01DX009 (ip), vehicle: saline
[15] = dose: 100.0 mg/kg/injection, schedule: Q01DX009 (ip), vehicle: saline
[16] = dose: 100.0 mg/kg/injection, schedule: Q04DX003 (ip), vehicle: saline
[17] = dose: 100.0 mg/kg/injection, schedule: Q04DX003 (ip), vehicle: Klucel (hydroxypropylcellulose) (HPC)
[18] = dose: 200.0 mg/kg/injection, schedule: Q04DX003 (ip), vehicle: Klucel (hydroxypropylcellulose) (HPC)
[19] = dose: 400.0 mg/kg/injection, schedule: Q04DX003 (ip), vehicle: Klucel (hydroxypropylcellulose) (HPC)

Structure (SMILES): CCNc1nncs1
- T/C (dose: 7.0 mg/kg/injection, schedule: Q03HX032 (ip), vehicle: saline): 97 % of control
- T/C (dose: 11.0 mg/kg/injection, schedule: Q03HX032 (ip), vehicle: saline): 104 % of control
- T/C (dose: 16.0 mg/kg/injection, schedule: Q03HX032 (ip), vehicle: saline): 105 % of control
- T/C (dose: 17.25 mg/kg/injection, schedule: Q01DX Z (ip), vehicle: carboxymethylcellulose (CMC)): 102 % of control
- T/C (dose: 24.0 mg/kg/injection, schedule: Q03HX032 (ip), vehicle: saline): 101 % of control
- T/C (dose: 27.0 mg/kg/injection, schedule: Q01DX015 (ip), vehicle: saline): 106 % of control
- T/C (dose: 27.6 mg/kg/injection, schedule: Q01DX Z (ip), vehicle: carboxymethylcellulose (CMC)): 100 % of control and 114 % of control
- T/C (dose: 34.5 mg/kg/injection, schedule: Q01DX Z (ip), vehicle: carboxymethylcellulose (CMC)): 98 % of control and 101 % of control
- T/C (dose: 36.0 mg/kg/injection, schedule: Q03HX032 (ip), vehicle: saline): 118 % of control
- T/C (dose: 40.0 mg/kg/injection, schedule: Q01DX015 (ip), vehicle: saline): 103 % of control
- T/C (dose: 46.0 mg/kg/injection, schedule: Q01DX Z (ip), vehicle: carboxymethylcellulose (CMC)): 100 % of control and 107 % of control
- T/C (dose: 60.0 mg/kg/injection, schedule: Q01DX015 (ip), vehicle: saline): 108 % of control
- T/C (dose: 64.0 mg/kg/injection, schedule: Q02DX010 (ip), vehicle: carboxymethylcellulose (CMC)): 117 % of control
- T/C (dose: 75.0 mg/kg/injection, schedule: Q01DX Z (ip), vehicle: saline): 170 % of control
- T/C (dose: 96.0 mg/kg/injection, schedule: Q02DX010 (ip), vehicle: carboxymethylcellulose (CMC)): 123 % of control
- T/C (dose: 103.5 mg/kg/injection, schedule: Q01DX Z (ip), vehicle: carboxymethylcellulose (CMC)): 123 % of control
- T/C (dose: 138.0 mg/kg/injection, schedule: Q01DX Z (ip), vehicle: carboxymethylcellulose (CMC)): 112 % of control
- T/C (dose: 150.0 mg/kg/injection, schedule: Q01DX Z (ip), vehicle: saline): 176 % of control
- T/C (dose: 150.0 mg/kg/injection, schedule: Q01DX Z (oral), vehicle: saline): 115 % of control
- T/C (dose: 265.0 mg/kg/injection, schedule: Q01DX001 (ip), vehicle: saline): 104 % of control
- T/C (dose: 270.0 mg/kg/injection, schedule: Q01DX001 (ip), vehicle: saline): 106 % of control
- T/C (dose: 300.0 mg/kg/injection, schedule: Q01DX Z (oral), vehicle: saline): 98 % of control
- T/C (dose: 337.0 mg/kg/injection, schedule: Q02DX010 (ip), vehicle: carboxymethylcellulose (CMC)): 120 % of control
- T/C [1]: 109 % of control
- T/C (dose: 562.0 mg/kg/injection, schedule: Q02DX010 (ip), vehicle: carboxymethylcellulose (CMC)): 112 % of control and 76 % of control
- T/C (dose: 562.5 mg/kg/injection, schedule: Q02DX010 (ip), vehicle: carboxymethylcellulose (CMC)): 84 % of control and 88 % of control
- T/C (dose: 600.0 mg/kg/injection, schedule: Q01DX001 (ip), vehicle: saline): 117 % of control
- T/C (dose: 600.0 mg/kg/injection, schedule: Q01DX Z (oral), vehicle: saline): 87 % of control

Structure (SMILES): COC1OCC(OS(C)(=O)=O)C(NC(C)=O)C1OS(C)(=O)=O (stereo not drawn)
- T/C (dose: 100.0 mg/kg/injection, schedule: Q01DX001 (ip), vehicle: carboxymethylcellulose (CMC)): 104 % of control
- T/C (dose: 177.0 mg/kg/injection, schedule: Q01DX001 (ip), vehicle: carboxymethylcellulose (CMC)): 100 % of control
- T/C (dose: 200.0 mg/kg/injection, schedule: Q01DX001 (ip), vehicle: carboxymethylcellulose (CMC)): 98 % of control
- T/C (dose: 266.0 mg/kg/injection, schedule: Q01DX001 (ip), vehicle: carboxymethylcellulose (CMC)): 94 % of control and 108 % of control
- T/C (dose: 400.0 mg/kg/injection, schedule: Q01DX001 (ip), vehicle: carboxymethylcellulose (CMC)): 94 % of control and 103 % of control
- T/C (dose: 600.0 mg/kg/injection, schedule: Q01DX001 (ip), vehicle: carboxymethylcellulose (CMC)): 97 % of control

Structure (SMILES): CCOC(=O)C1C(=O)C(C(C(=O)OC2CC(C)CCC2C(C)C)N(CCCl)CCCl)C(=O)C(C(=O)OCC)C1c1ccc(O)cc1 (stereo not drawn)
- T/C [2]: 104 % of control
- T/C [3]: 104 % of control
- T/C [4]: 101 % of control

Structure (SMILES): c1ccc(-c2cc3c(-c4ccccc4)c4ccccc4c(-c4ccccc4)c3cc2-c2ccccc2)cc1
- T/C [5]: 96 % of control
- T/C [6]: 96 % of control
- T/C [7]: 108 % of control

Structure (SMILES): CC/C=C1\CCOC1=O
- T/C (dose: 100.0 mg/kg/injection, schedule: Q04DX002 (ip), vehicle: saline): 102 % of control
- T/C (dose: 200.0 mg/kg/injection, schedule: Q04DX002 (ip), vehicle: saline): 102 % of control
- T/C (dose: 400.0 mg/kg/injection, schedule: Q04DX002 (ip), vehicle: saline): 115 % of control

Structure (SMILES): CC(CO)(CO)C1CCCCC1
- T/C [8]: 93 % of control
- T/C [9]: 101 % of control
- T/C [10]: 97 % of control

Structure (SMILES): CC1(C)N=C(N)N=C(N)N1c1ccccc1I
- T/C (dose: 12.5 mg/kg/injection, schedule: Q01DX009 (ip), vehicle: Klucel (hydroxypropylcellulose) (HPC)): 100 % of control
- T/C (dose: 25.0 mg/kg/injection, schedule: Q01DX009 (ip), vehicle: Klucel (hydroxypropylcellulose) (HPC)): 110 % of control
- T/C [2]: 97 % of control

Structure (SMILES): CC(C)(C)CN=C(N)N
- T/C [11]: 96 % of control
- T/C [12]: 94 % of control
- T/C [1]: 102 % of control

Structure (SMILES): O=Cc1ccsc1
- T/C [10]: 90 % of control
- T/C (dose: 200.0 mg/kg/injection, schedule: Q04DX002 (ip), vehicle: saline with Tween-80): 97 % of control
- T/C (dose: 400.0 mg/kg/injection, schedule: Q04DX002 (ip), vehicle: saline with Tween-80): 101 % of control

Structure (SMILES): C/C(=C/c1ccc([N+](=O)[O-])cc1)C(=O)O
- T/C [3]: 96 % of control
- T/C [4]: 115 % of control
- T/C [13]: 107 % of control

Structure (SMILES): COc1ccc(C2(Br)C(=O)NN=C2C)cc1 (stereo not drawn)
- T/C [11]: 95 % of control
- T/C [12]: 100 % of control
- T/C [1]: 95 % of control

Structure (SMILES): CN(C)CCC(=O)/C=C\c1ccccc1
- T/C (dose: 25.0 mg/kg/injection, schedule: Q01DX009 (ip), vehicle: saline): 91 % of control
- T/C [8]: 105 % of control
- T/C (dose: 25.0 mg/kg/injection, schedule: Q04DX003 (ip), vehicle: saline): 89 % of control
- T/C [14]: 88 % of control
- T/C [9]: 98 % of control
- T/C (dose: 50.0 mg/kg/injection, schedule: Q04DX003 (ip), vehicle: saline): 90 % of control
- T/C [15]: 88 % of control
- T/C [10]: 88 % of control
- T/C [16]: 89 % of control

Structure (SMILES): CCNCCNC
- T/C [14]: 96 % of control
- T/C [15]: 101 % of control
- T/C [16]: 108 % of control
- T/C (dose: 200.0 mg/kg/injection, schedule: Q04DX003 (ip), vehicle: saline): 101 % of control

Structure (SMILES): CCC(=O)Nc1cccc(OC(=O)NCC(C)C)c1
- T/C [6]: 92 % of control
- T/C [7]: 94 % of control
- T/C (dose: 400.0 mg/kg/injection, schedule: Q01DX009 (ip), vehicle: saline with Tween-80): 91 % of control

Structure (SMILES): CC(=O)c1c(C)c(C)cc(C)c1C
- T/C [3]: 110 % of control
- T/C [17]: 96 % of control
- T/C [4]: 97 % of control
- T/C [18]: 103 % of control
- T/C [13]: 111 % of control
- T/C [19]: 103 % of control

Structure (SMILES): c1ccc2c(CN3CCCCC3)c[nH]c2c1
- T/C [5]: 108 % of control
- T/C [6]: 88 % of control
- T/C (dose: 100.0 mg/kg/injection, schedule: Q04DX003 (ip), vehicle: saline with Tween-80): 93 % of control
- T/C (dose: 200.0 mg/kg/injection, schedule: Q04DX003 (ip), vehicle: saline with Tween-80): 88 % of control

Structure (SMILES): OCC1OC(Sc2ccccc2)C(O)C(O)C1O (stereo not drawn)
- T/C [17]: 111 % of control
- T/C [18]: 105 % of control
- T/C [19]: 111 % of control

Structure (SMILES): CC(=O)/C(=C\c1ccccc1)c1ccccc1
- T/C [17]: 96 % of control
- T/C [18]: 91 % of control
- T/C [19]: 98 % of control
